In PMC6766518 (Physiological Reports, 2019):
Read-outs that look alike come from different tables or passages of the source. Blank lines part the entries; values can stand above or below the molecule they belong to.

Key:
[1] = tested on: patients with osteoporosis; details: ref Neer et al. 2001, cited from earlier work
Source text: Human life expectancy has increased, thanks to the advances in medical research and the subsequent improvement in health care. As a result, there is a growing demand for better management of the common illnesses of the increasing elderly population. One of these illnesses, osteoporosis, is a common world‐wide bone disorder and a major public health threat for 44 million Americans, 68% of them being women. Osteoporosis accounts for an estimated 1.5 million fractures in the US every year costing over 14 billion dollars. Furthermore, the National Osteoporosis Foundation estimates that 50% of wome ...

[2] = tested on: RANKL gene expression; details: in vivo and in vitro; ref Ricarte et al. 2018; cited from earlier work
Source text: PTHR1 is a member of subclass B seven transmembrane spanning GTP‐binding protein (G‐protein) coupled receptors (GPCR) that activates multiple G‐proteins, primarily the Gs but also Gq/11, Gi, and G12/13 G‐proteins. As a result, PTHR1 activation stimulates multiple downstream pathways and events such as Gs/adenylate cyclase/cAMP/protein kinase A, Gq11/phospholipase C/diacylglycerol‐inositol‐triphosphate‐Ca/protein kinase C, phospholipase D, and Src/β‐arrestin/MAPK pathways and PTHR1 phosphorylation and internalization (Abou‐Samra et al. 1992; Sneddon et al. 2000; Tawfeek et al. 2001; Tawfeek et ...

[3] = tested on: patients; details: cited from earlier work
[4] = tested on: female C57BL/6J mice (serum Ca^2+ and Pi); assay: Serum Ca2+ and Pi, colorimetric; details: 80 µg/kg/day SC, 30 days; 24 h after last injection; vs vehicle; N = 5 mice/group
Method: All animal procedures were reviewed and approved by the Institutional Animal Care and Use Committee at James J. Peters Veterans Affairs Medical Center. […] No peptide injection was performed on the day of animal sacrifice.
Blood was collected and serum was separated as described above. Serum Ca^2+ and Pi concentrations were measured using colorimetric Ca^2+ and Pi assay kits (Cat numbers K380 and K410, respectively) as indicated by the manufacturer (BioVision, Milpitas, CA).
For in vivo studies, five mice/group were used. […] Statistical analyses were performed using GraphPad Prism and Microsoft excel. […] The results are presented as the means ± SD. […] For carrying out multiple group comparisons (all in vivo experiments), one‐way analysis of variance (ANOVA) was performed. When ANOVA indicated unequal means, Tukey's honestly significant difference (HSD) posthoc test was performed to determine which means were different to the level of significance. Statistical significance was considered when P value was less than 0.05 (P < 0.05).
Sera were collected at sacrifice (24 h after last injection) and levels of Ca^2+ and Pi were measured using specific colorimetric assays. (A) Serum Ca^2+ levels. (B) Serum Pi levels. The statistical designation directly listed on the top of each bar indicates the significance level in comparison to vehicle. […] The data in all graph are expressed as the means ± SD. […]

[5] = target: T1, PTHR1 (Homo sapiens, UniProt Q03431); assay: PathHunter eXpress PTHR1 CHO-K1 β-arrestin GPCR assay (β-arrestin recruitment); assay type: cell-based; details: CHO‐K1 cells; abaloparatide vs teriparatide; P = 0.02
T1 sequence (Q03431 27-593): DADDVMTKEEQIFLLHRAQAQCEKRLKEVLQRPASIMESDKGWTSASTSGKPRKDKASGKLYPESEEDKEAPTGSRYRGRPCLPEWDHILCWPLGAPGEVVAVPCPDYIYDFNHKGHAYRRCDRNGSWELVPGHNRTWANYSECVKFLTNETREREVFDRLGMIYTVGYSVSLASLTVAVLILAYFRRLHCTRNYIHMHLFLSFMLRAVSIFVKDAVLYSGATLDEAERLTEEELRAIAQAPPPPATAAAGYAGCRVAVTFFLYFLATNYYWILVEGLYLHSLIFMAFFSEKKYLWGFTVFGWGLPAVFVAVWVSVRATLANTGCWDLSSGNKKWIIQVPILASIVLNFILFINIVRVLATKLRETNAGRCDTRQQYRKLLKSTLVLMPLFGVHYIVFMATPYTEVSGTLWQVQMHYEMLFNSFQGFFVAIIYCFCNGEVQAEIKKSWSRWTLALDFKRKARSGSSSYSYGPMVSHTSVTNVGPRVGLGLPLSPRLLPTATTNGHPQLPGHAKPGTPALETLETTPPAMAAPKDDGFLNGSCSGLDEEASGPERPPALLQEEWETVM

[6] = target: T2, PTHR1 (MC3T3‐E1 osteoblast cell line) (Mus musculus, UniProt P41593); assay: Intracellular cAMP generation in MC3T3-E1 osteoblast cells; assay type: cell-based
T2 construct: host or cells: MC3T3-E1 subclone 4
T2 sequence (P41593 27-591): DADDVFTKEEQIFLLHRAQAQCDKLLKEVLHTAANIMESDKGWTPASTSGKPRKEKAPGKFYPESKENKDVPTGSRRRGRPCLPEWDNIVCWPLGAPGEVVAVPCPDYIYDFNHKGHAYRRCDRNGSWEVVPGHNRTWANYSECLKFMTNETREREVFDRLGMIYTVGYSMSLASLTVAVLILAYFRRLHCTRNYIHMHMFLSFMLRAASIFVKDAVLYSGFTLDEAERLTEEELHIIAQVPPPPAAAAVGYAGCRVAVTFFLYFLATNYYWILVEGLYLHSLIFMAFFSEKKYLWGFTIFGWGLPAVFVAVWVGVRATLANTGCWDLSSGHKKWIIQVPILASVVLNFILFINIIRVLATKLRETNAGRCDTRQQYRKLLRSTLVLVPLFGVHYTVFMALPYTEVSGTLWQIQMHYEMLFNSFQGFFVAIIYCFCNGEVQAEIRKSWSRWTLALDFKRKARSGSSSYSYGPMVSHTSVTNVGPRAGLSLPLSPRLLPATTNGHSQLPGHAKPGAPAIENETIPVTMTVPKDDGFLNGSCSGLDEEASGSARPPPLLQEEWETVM

Molecule: PTH: PTH as administered in cited studies; context points to the amino‐terminal fragment PTH1‐34 (SVSEIQLMHNLGKHLNSMERVEWLRKKLQDVHNF; Parathyroid hormone; UniProt P01270 32-65, looked up, fragment)
Increase in BMD in spine and femur versus bisphosphonates ([1]; men and women with osteoporosis): more efficiently than treatment with bisphosphonates
Decrease in risk of vertebral and nonvertebral fractures [1]: more than 50%
RANKL gene expression [2]: larger RANKL gene expression in vivo and in vitro

Elevation in serum Pi [4]: 50%
Molecule: CC[C@H](C)[C@H](NC(=O)[C@H](CCC(=O)O)NC(=O)[C@H](CO)NC(=O)[C@@H](NC(=O)[C@@H](N)CO)C(C)C)C(=O)N[C@@H](CCC(N)=O)C(=O)N[C@@H](CC(C)C)C(=O)N[C@@H](CCSC)C(=O)N[C@@H](Cc1cnc[nH]1)C(=O)N[C@@H](CC(N)=O)C(=O)N[C@@H](CC(C)C)C(=O)NCC(=O)N[C@@H](CCCCN)C(=O)N[C@@H](Cc1cnc[nH]1)C(=O)N[C@@H](CC(C)C)C(=O)N[C@@H](CC(N)=O)C(=O)N[C@@H](CO)C(=O)N[C@@H](CCSC)C(=O)N[C@@H](CCC(=O)O)C(=O)N[C@@H](CCCN=C(N)N)C(=O)N[C@H](C(=O)N[C@@H](CCC(=O)O)C(=O)N[C@@H](Cc1c[nH]c2ccccc12)C(=O)N[C@@H](CC(C)C)C(=O)N[C@@H](CCCN=C(N)N)C(=O)N[C@@H](CCCCN)C(=O)N[C@@H](CCCCN)C(=O)N[C@@H](CC(C)C)C(=O)N[C@@H](CCC(N)=O)C(=O)N[C@@H](CC(=O)O)C(=O)N[C@H](C(=O)N[C@@H](Cc1cnc[nH]1)C(=O)N[C@@H](CC(N)=O)C(=O)N[C@@H](Cc1ccccc1)C(=O)O)C(C)C)C(C)C [teriparatide]
Patients with hypercalcemia ([3]; transient and infrequent event, ref Miller et al. 2018): 6.4%

EC50 for β‐arrestin recruitment lower than that of teriparatide [5]: 1.6 fold
EC50 ([6]; 0.01–100 nmol/L, 40 min at 37°C, 0.5 mmol/L IBMX, cAMP competitive ELISA, mean ± SD, three independent experiments, p = 0.02 between analogs, read-out: EC50 for cAMP formation): 0.3 ± 0.03 nM
Decrease in EC50 value for cAMP formation compared to teriparatide ([6]; abaloparatide vs teriparatide, p = 0.02): 2.3 fold
Molecule: CC[C@H](C)[C@H](NC(=O)[C@H](CO)NC(=O)[C@H](CCCCN)NC(=O)CNC(=O)[C@H](CCCCN)NC(=O)[C@H](CC(=O)O)NC(=O)[C@H](Cc1cnc[nH]1)NC(=O)[C@H](CC(C)C)NC(=O)[C@H](CC(C)C)NC(=O)[C@H](CCC(N)=O)NC(=O)[C@H](Cc1cnc[nH]1)NC(=O)[C@H](CCC(=O)O)NC(=O)[C@H](CO)NC(=O)[C@@H](NC(=O)[C@H](C)N)C(C)C)C(=O)N[C@@H](CCC(N)=O)C(=O)N[C@@H](CC(=O)O)C(=O)N[C@@H](CC(C)C)C(=O)N[C@@H](CCCNC(=N)N)C(=O)N[C@@H](CCCNC(=N)N)C(=O)N[C@@H](CCCNC(=N)N)C(=O)N[C@@H](CCC(=O)O)C(=O)N[C@@H](CC(C)C)C(=O)N[C@@H](CC(C)C)C(=O)N[C@@H](CCC(=O)O)C(=O)N[C@@H](CCCCN)C(=O)N[C@@H](CC(C)C)C(=O)N[C@@H](CC(C)C)C(=O)NC(C)(C)C(=O)N[C@@H](CCCCN)C(=O)N[C@@H](CC(C)C)C(=O)N[C@@H](Cc1cnc[nH]1)C(=O)N[C@H](C(=O)N[C@@H](C)C(N)=O)[C@@H](C)O [abaloparatide]
Patients with hypercalcemia ([3]; human, in vivo): 3.4%
